Converted amounts (≈) assume the structure as drawn.
Legend:
[1] = test system: mixed lymphocytes reaction (MLR), T cells from spleen cells of C57BL/6 mice and BALB/c mice; assay: Immunosuppressive activity: inhibition of mixed lymphocytes reaction (MLR); type: cell-based, mice (C57BL/6; conditions: Lymphocyte; mouse MLR, 50% inhibition
From the text: We measured inhibitory activity of mixed lymphocytes reaction (MLR) and determined the 50% inhibitory activity. Lymphocytes used are T cells from spleen cells of C57BL/6 mice and BALB/c mice.

[2] = test system: Cryptococcus neoformans TIMM 0354; assay: Antifungal activity: growth inhibition of Cryptococcus neoformans TIMM 0354 (serial two-fold dilution); type: cell-based; conditions: YNBG liquid medium, 2 days at 30° C.; for MIC: Cryptococcus neoformans, TIMM0354, 48 h, read-out: Antifungal activity MIC (minimum growth inhibitory concentration); for minimum growth sub-inhibitory concentration (minimum concentration causing partial growth inhibition; value in parentheses): printed in parentheses
Method: The test microorganism used was Cryptococcus neoformans TIMM 0354. YNBG liquid medium (Difco yeast nitrogen base 0.67%, glucose 1%) was used and the minimum growth inhibitory concentration […] was determined after culturing for 2 days at 30° C. in the presence of the serial two-fold dilution of the compound. The minimum growth sub-inhibitory concentration (μg/ml) was determined as the minimum concentration causing partial growth inhibition of the microorganism and also shown in Table 2 in parentheses.

Row | IC50 [1] | MIC [2] | Structure (SMILES) | minimum growth sub-inhibitory concentration (minimum concentration causing partial growth inhibition; value in parentheses) [2]
1 | 3.25 µg/mL (≈ 6.65 µM) | 50 µg/mL (≈ 102 µM) | CCCCCCCCCCCCCCCC(O)C(N)COC(=O)[C@@H](NC(=O)C(O)CO)C(C)C (some centres unmarked) [Compound (1)] | 25 µg/mL
2 | 1.86 µg/mL (≈ 3.82 µM) | 25 µg/mL (≈ 51.4 µM) | CCCCCCCCCCCCCC=CC(O)C(N)COC(=O)C(NC(=O)C(O)CO)C(C)C (centres unmarked) [Compound (2)] | 12.5 µg/mL
3 | 5 µg/mL (≈ 12.9 µM) | 50 µg/mL (≈ 129 µM) | CCCCCCCCCCCCCC=CC(O)C(N)COC(=O)C(O)CO (centres unmarked) [Compound (5)] | 25 µg/mL
4 | 1.55 µg/mL (≈ 3.89 µM) | 50 µg/mL (≈ 125 µM) | CCCCCCCCCCCCCC=CC(O)C(N)COC(=O)C(N)C(C)C (centres unmarked) [Compound (6)] | 25 µg/mL
5 | 0.44 µg/mL (≈ 0.787 µM) |  | CCCCCCCCCCCCCCCC(O)C(N)C(=O)NC(C)C(=O)NC(C(=O)NC(CO)CO)C(C)C (centres unmarked) [Compound (8)] | 50 µg/mL
